For orientation: IC50 means the concentration at which inhibition is half-maximal. As usually defined, the EC50 is the concentration that produces a half-maximal response.

One experiment concerns the target NRAS G12C (Homo sapiens (Human), UniProt P01111+P62937, G12C). Put plainly: Ras-Raf (BRAF RBD) disruption / FRET / MOA assay, NRAS G12C. It is filed as biochemical. The note with it: read-out: IC50* NRAS G12C FRET data. The essentials: (§1)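 Compounds, top final concentration 30 μM in 10-point 3-fold series, incubated 3 hours at 25° C with nucleotide-loaded Ras, cyclophilin A and BRAF RBD.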

Another experiment has as its target KRAS G12D (Homo sapiens (Human), UniProt P01116+P62937, G12D). Kind of experiment: Ras-Raf (BRAF RBD) disruption / FRET / MOA assay, KRAS G12D. It is filed as biochemical. Conditions: Ras-Raf disruption/FRET/MOA assay; class symbols; read-out: KRAS G12D FRET data IC50. The essentials:
as §1

A further experiment concerns NCI-H358 (K-Ras G12C). Kind of experiment: CellTiter-Glo cell viability assay, NCI-H358. It counts as cell-based, human. Conditions: Homo sapiens, NCI-H358, 120 h, NCI-H358, 5-day treatment; class symbols; read-out: Additional H358 Cell Viability assay data (K-Ras G12C, IC50). A digest of the protocol: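 Compounds were dispensed directly onto K-Ras mutant cells and incubated until day 5, then plates were equilibrated to room temperature for about 30 minutes before CellTiter-Glo luminescence. Signals were normalized as (sample/average DMSO)*100 and fitted by four-parameter logistic fit.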

The next experiment deals with K-Ras G12C (Homo sapiens (Human), UniProt P01116+P62937, G12C). Kind of experiment: Ras-Raf (BRAF RBD) disruption / FRET / MOA assay, KRAS G12C. The note with it: KRAS G12C; Ras-Raf disruption/FRET/MOA assay; read-out: IC50* KRAS G12C FRET data. It counts as biochemical. A digest of the protocol:
as §1

In the next experiment the target is KRAS G13D (Homo sapiens (Human), UniProt P01116+P62937, G13D). Put plainly: Ras-Raf (BRAF RBD) disruption / FRET / MOA assay, KRAS G13D. It counts as biochemical. Conditions: read-out: IC50* KRAS G13D FRET data. A digest of the protocol: as §1
A further experiment addresses K-Ras G13C (Homo sapiens (Human), UniProt P01116+P62937, G13C). Put plainly: Ras-Raf (BRAF RBD) disruption / FRET / MOA assay, KRAS G13C. It is filed as biochemical. The note with it: KRAS G13C; Ras-Raf disruption/FRET/MOA assay; read-out: IC50* KRAS G13C FRET data. The essentials:
as §1

Experiment [1] relates to NCI-H358 cells (K-Ras G12C). Put plainly: Potency assay: pERK in NCI-H358 cells. The note with it: Homo sapiens, NCI-H358; H358 KRAS G12C; read-out: pERK EC50. It is filed as cell-based, human. The essentials:
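Inhibition of cellular pERK after a 4 h treatment, detected by AlphaLISA or In-Cell Western. IC50 from a four-parameter concentration-response fit.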

The next experiment addresses KRAS G12S (Homo sapiens (Human), UniProt P01116+P62937, G12S). Kind of experiment: Ras-Raf (BRAF RBD) disruption / FRET / MOA assay, KRAS G12S. Conditions: Ras-Raf disruption/FRET/MOA assay; class symbols; read-out: KRAS G12S FRET data IC50. It is filed as biochemical. A digest of the protocol: as §1
Another experiment deals with KRAS G12V (Homo sapiens (Human), UniProt P01116+P62937, G12V). Kind of experiment: Ras-Raf (BRAF RBD) disruption / FRET / MOA assay, KRAS G12V. It counts as biochemical. The note with it: read-out: IC50* KRAS G12V FRET data. A digest of the protocol: as §1
Another experiment has as its target KRAS WT (Homo sapiens (Human), UniProt P01116+P62937). Kind of experiment: Ras-Raf (BRAF RBD) disruption / FRET / MOA assay, KRAS WT. It is filed as biochemical. Conditions: read-out: IC50* KRAS WT FRET data. A digest of the protocol: as §1

Sequence of KRAS G12V (P01116-2 other isoform, or with tags, fused parts or gaps G12V): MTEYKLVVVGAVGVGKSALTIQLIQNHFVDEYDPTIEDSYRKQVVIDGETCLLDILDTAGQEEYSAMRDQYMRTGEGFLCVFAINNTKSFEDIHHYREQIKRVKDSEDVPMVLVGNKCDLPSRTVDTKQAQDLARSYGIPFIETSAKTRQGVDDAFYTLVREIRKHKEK
Sequence of KRAS G12V (P62937 whole entry): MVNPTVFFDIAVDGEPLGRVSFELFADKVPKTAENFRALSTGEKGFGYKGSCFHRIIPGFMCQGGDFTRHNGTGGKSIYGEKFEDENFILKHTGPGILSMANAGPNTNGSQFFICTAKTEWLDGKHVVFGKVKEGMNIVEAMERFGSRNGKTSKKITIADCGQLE
Sequence of KRAS G13D (P01116-2 other isoform, or with tags, fused parts or gaps G13D): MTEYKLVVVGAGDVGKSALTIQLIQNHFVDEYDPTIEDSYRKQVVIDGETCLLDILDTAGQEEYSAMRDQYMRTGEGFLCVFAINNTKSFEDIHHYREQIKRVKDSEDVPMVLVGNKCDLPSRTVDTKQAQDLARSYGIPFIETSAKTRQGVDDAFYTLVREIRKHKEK
Sequence of KRAS G13D (P62937 whole entry): as the sequence (P62937 whole entry) above
Sequence of KRAS G12D (P01116-2 other isoform, or with tags, fused parts or gaps G12D): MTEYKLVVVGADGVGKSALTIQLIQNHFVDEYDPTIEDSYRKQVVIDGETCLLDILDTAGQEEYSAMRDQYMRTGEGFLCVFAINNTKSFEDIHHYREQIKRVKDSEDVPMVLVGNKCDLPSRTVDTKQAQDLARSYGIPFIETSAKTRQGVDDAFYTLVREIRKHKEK
Sequence of KRAS G12D (P62937 whole entry): as the sequence (P62937 whole entry) above
Sequence of K-Ras G13C (P01116-2 other isoform, or with tags, fused parts or gaps G13C): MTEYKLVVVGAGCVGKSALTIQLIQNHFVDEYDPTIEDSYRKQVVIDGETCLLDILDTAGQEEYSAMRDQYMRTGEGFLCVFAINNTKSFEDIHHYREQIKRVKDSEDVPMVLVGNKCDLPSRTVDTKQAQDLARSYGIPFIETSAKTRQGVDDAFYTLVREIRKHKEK
Sequence of K-Ras G13C (P62937 whole entry): as the sequence (P62937 whole entry) above
Sequence of KRAS WT (P01116-2 other isoform, or with tags, fused parts or gaps): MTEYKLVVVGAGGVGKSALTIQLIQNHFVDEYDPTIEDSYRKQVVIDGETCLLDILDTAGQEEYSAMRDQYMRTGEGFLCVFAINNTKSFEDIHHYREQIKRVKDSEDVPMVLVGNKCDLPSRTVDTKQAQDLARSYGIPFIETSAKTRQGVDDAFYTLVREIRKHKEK
Sequence of KRAS WT (P62937 whole entry): as the sequence (P62937 whole entry) above
Sequence of K-Ras G12C (P01116-2 other isoform, or with tags, fused parts or gaps G12C): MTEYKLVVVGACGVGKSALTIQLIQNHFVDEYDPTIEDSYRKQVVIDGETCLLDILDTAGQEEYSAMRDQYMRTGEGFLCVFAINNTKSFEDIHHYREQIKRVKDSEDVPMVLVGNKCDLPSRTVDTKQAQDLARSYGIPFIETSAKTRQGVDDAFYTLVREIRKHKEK
Sequence of K-Ras G12C (P62937 whole entry): as the sequence (P62937 whole entry) above
Sequence of NRAS G12C (P01111 whole entry G12C): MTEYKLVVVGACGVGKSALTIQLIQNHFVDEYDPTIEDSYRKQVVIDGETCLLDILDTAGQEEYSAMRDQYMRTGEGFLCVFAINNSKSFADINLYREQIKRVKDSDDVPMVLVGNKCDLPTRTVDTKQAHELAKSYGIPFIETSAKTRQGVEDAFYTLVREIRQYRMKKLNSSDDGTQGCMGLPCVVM
Sequence of NRAS G12C (P62937 whole entry): as the sequence (P62937 whole entry) above
Sequence of KRAS G12S (P01116-2 other isoform, or with tags, fused parts or gaps G12S): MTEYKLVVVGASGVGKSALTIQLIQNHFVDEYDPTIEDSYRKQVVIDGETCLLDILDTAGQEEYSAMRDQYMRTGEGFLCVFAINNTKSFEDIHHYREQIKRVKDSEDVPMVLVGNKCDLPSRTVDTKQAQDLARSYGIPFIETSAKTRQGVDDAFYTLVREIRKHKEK
Sequence of KRAS G12S (P62937 whole entry): as the sequence (P62937 whole entry) above

For the compound `CCn1c(-c2cccnc2[C@H](C)OC)c2c3cc(ccc31)-c1cc(O)cc(c1)C[C@H](NC(=O)[C@H](C(C)C)N(C)C(=O)N1CCN(C(=O)/C=C/CN(C)C)CC1)C(=O)N1CCC[C@H](N1)C(=O)OCC(C)(C)C2` (atropisomer, axis not shown) [Example A263], the IC50 lay in the range of 10 to 100 nM on NRAS G12C; 100 to 1000 nM at KRAS G12D; 100 to 1000 nM in the experiment with NCI-H358 (K-Ras G12C); 10 to 100 nM at K-Ras G12C; 10 to 100 nM at KRAS G13D; 10 to 100 nM on K-Ras G13C. In addition, the IC50 fell in the range of 100 to 1000 nM on KRAS G12S, 100 to 1000 nM at KRAS G12V and 10 to 100 nM on KRAS WT. Moreover, the EC50 in experiment [1] is < 5000 nM.

As to `CCn1c(-c2cccnc2[C@H](C)OC)c2c3cc(ccc31)-c1cc(O)cc(c1)C[C@H](NC(=O)[C@H](C(C)C)N(C)C(=O)N1CCCN(C(=O)/C=C/CN(C)C)CC1)C(=O)N1CCC[C@H](N1)C(=O)OCC(C)(C)C2` (atropisomer, axis not shown) [Example A264], the concentration for half-maximal inhibition (IC50) at NRAS G12C, on KRAS G12D, with NCI-H358 (K-Ras G12C), at K-Ras G12C, at KRAS G13D and on K-Ras G13C was 10 to 100 nM in each case. Also, the IC50 at KRAS G12S, on KRAS G12V and at KRAS WT was 10 to 100 nM throughout. Moreover, the EC50 in experiment [1] is < 5000 nM.

Regarding `C=CC(=O)N1CCCN(C(=O)N(C)[C@H](C(=O)N[C@H]2Cc3cc(O)cc(c3)-c3ccc4c(c3)c(c(-c3cccnc3[C@H](C)OC)n4CC)CC(C)(C)COC(=O)[C@@H]3CCCN(N3)C2=O)C(C)C)CC1` (atropisomer, axis not shown) [Example A265], the IC50 on NRAS G12C, at KRAS G12D, in the experiment on NCI-H358 (K-Ras G12C), on K-Ras G12C, on KRAS G13D and on K-Ras G13C was 10 to 100 nM throughout. Besides, the IC50 on KRAS G12S, on KRAS G12V and at KRAS WT was 10 to 100 nM each time. Further, the EC50 in experiment [1] is < 5000 nM.

As to `CCn1c(-c2cccnc2[C@H](C)OC)c2c3cc(ccc31)-c1cc(O)cc(c1)C[C@H](NC(=O)[C@H](C(C)C)N1CCC3(CCN(C(=O)/C=C/CN(C)C)CC3)C1=O)C(=O)N1CCC[C@H](N1)C(=O)OCC(C)(C)C2` (atropisomer, axis not shown) [Example A267], the half-maximal inhibitory concentration (IC50) fell in the range of 10 to 100 nM on NRAS G12C; 1000 to 10000 nM on KRAS G12D; 10 to 100 nM in the experiment with NCI-H358 (K-Ras G12C); 10 to 100 nM at K-Ras G12C; 10 to 100 nM at KRAS G13D; 10 to 100 nM at K-Ras G13C. Further, the IC50 on KRAS G12S, on KRAS G12V and at KRAS WT was 100 to 1000 nM throughout. Moreover, the EC50 in experiment [1] is < 5000 nM.

For the compound `CCn1c(-c2cccnc2[C@H](C)OC)c2c3cc(ccc31)-c1cc(O)cc(c1)C[C@H](NC(=O)[C@H](C(C)C)N1CC[C@]3(CCN(C(=O)/C=C/CN(C)C)C3)C1=O)C(=O)N1CCC[C@H](N1)C(=O)OCC(C)(C)C2` (atropisomer, axis not shown) [Example A268], the IC50 at NRAS G12C is < 10 nM; on KRAS G12D, 10 to 100 nM; in the experiment on NCI-H358 (K-Ras G12C), 10 to 100 nM; at K-Ras G12C, < 10 nM; on KRAS G13D it was 10 to 100 nM; at K-Ras G13C, 10 to 100 nM. For the same compound, the IC50 on KRAS G12S, on KRAS G12V and at KRAS WT was 10 to 100 nM in each case. In experiment [1], the EC50 was < 5000 nM.

`CCn1c(-c2cccnc2[C@H](C)OC)c2c3cc(ccc31)-c1cc(O)cc(c1)C[C@H](NC(=O)[C@H](C(C)C)N1CC[C@@]3(CCN(C(=O)/C=C/CN(C)C)C3)C1=O)C(=O)N1CCC[C@H](N1)C(=O)OCC(C)(C)C2` (atropisomer, axis not shown) [Example A269]: the IC50 on NRAS G12C lay in the range of 10 to 100 nM; on KRAS G12D it was 100 to 1000 nM; with NCI-H358 (K-Ras G12C), 10 to 100 nM; on K-Ras G12C, 10 to 100 nM; at KRAS G13D, 100 to 1000 nM; at K-Ras G13C, 100 to 1000 nM. The IC50 at KRAS G12S, on KRAS G12V and at KRAS WT was 100 to 1000 nM each time. The EC50 in experiment [1] was < 5000 nM.

Source of the values: patent US11566007B2, “Ras inhibitors” (Revolution Medicines, Inc., priority 2019, dated 2023).
